Source: article PMC7504725, “Automated Synthesis of Fluorine-18 Labeled CXCR4 Ligand via the Conjugation with Nicotinic Acid N-Hydroxysuccinimide Ester (6-[^18F]SFPy)” (Molecules, 2020)
pIC50: −log10 of the molar value. Read-outs that look alike come from different tables or passages of the source.

Assays:
HIV = conditions: 4-fluorobenzoyl group introduced on T140-based pharmacophore; ref [30]; cited from earlier work
From the text: Numerous truncated peptide analogs that mimic the function of CXCL12 have been reported. Tamamura et al. described the synthesis of novel 14-amino acid peptide inhibitors (T134, T140) based on the structure of their previously reported 18-amino acid peptide, T22, for inhibitory activity against HIV-1 entry. […] However, due to the complex and time-consuming radiolabeling procedure, they developed another analog, (Al[^18F]NOTA-T140), using the Al-F me ...

CXCR4 = test system: CXCR4; set-up: method as in earlier work; conditions: previously reported, ref [24],[31],[48],[49],[50],[51] (collective), cited from earlier work
[1] = Hydrolysis of 6-[^18F]SFPy to 6-[^18F]fluoronicotinic acid (HPLC); assay type: physicochemical; conditions: room temperature, 4h post radiolabeling; HPLC method B (Vydac C-4), radio detector
Procedure: Figure 2 HPLC analysis (method B) of 6-[^18F]SFPy (A) Crude reaction mixture; (B) Crude reaction mixture co-injected with the non-radioactive standard; (C) Pure; (D) Pure co-injected with the non-radioactive standard; (E) After 4h of labeling at room temperature co-injected with the non-radioactive standard, 6-fluoronicotinic acid. Solid line, in-line radio detector; dotted line, UV detector at 254 nm. Retention time (min): 6-[^18F]SFPy, 4.0; compound 4, 4.1; 6-[^18F]fluoronicotinic acid, 2.8.
Method B (HPLC conditions for analysis): Vydac C-4 (2) column (4.6 × 150 mm, 5 µ), mobile phase: 15–22% B in 10 min; B = acetonitrile (0.1% TFA), A = Water (0.1% TFA), flow rate of 1 mL/min; tR = ~8 min.

CXCR4 positive tumors = conditions: PET, xenograft mouse model, RBC binding blocked with non-radioactive 4-FBz-T140, ref [31]; cited from earlier work
From the text: (§1) However, due to the complex and time-consuming radiolabeling procedure, they developed another analog, (Al[^18F]NOTA-T140), using the Al-F me ...

red blood cells (RBCs) = conditions: blocked by non-radioactive standard 4-FBz-T140 peptide; ref [31]; cited from earlier work
From the text: as §1

4-fluorobenzoyl-TN14003 [4-FBz-T140]
anti-HIV activity (in words) (HIV): enhancement of anti-HIV activity
pIC50 (CXCR4; first of two values printed for this analog): 9.00
pIC50 (CXCR4; second of two values printed for this analog): 8.76

O=C(ON1C(=O)CCC1=O)c1ccc([18F])nc1 [6-[^18F]SFPy]
conversion to 6-[^18F]fluoronicotinic acid (slow hydrolysis) [1]: 15%

4-[^18F]fluorobenzoyl-TN14003 [4-[^18F]FBz-T140]
tumor-to-background ratios (in words) (CXCR4 positive tumors): high tumor-to-background ratios
binding to red blood cells (in words) (red blood cells (RBCs)): elevated binding
